Experimental data as given in PMC3567212 (Biochemistry, 2012).
Positions count from the first letter of the chain named.

Key:
Test in all cases: coupled spectrophotometric assay
Type in all cases: biochemical
[1] = target: T1, Rhizobium etli pyruvate carboxylase (RePC) (Rhizobium etli, UniProt Q2K340, R472K)
T1 sequence (Q2K340 1-1154 R472K): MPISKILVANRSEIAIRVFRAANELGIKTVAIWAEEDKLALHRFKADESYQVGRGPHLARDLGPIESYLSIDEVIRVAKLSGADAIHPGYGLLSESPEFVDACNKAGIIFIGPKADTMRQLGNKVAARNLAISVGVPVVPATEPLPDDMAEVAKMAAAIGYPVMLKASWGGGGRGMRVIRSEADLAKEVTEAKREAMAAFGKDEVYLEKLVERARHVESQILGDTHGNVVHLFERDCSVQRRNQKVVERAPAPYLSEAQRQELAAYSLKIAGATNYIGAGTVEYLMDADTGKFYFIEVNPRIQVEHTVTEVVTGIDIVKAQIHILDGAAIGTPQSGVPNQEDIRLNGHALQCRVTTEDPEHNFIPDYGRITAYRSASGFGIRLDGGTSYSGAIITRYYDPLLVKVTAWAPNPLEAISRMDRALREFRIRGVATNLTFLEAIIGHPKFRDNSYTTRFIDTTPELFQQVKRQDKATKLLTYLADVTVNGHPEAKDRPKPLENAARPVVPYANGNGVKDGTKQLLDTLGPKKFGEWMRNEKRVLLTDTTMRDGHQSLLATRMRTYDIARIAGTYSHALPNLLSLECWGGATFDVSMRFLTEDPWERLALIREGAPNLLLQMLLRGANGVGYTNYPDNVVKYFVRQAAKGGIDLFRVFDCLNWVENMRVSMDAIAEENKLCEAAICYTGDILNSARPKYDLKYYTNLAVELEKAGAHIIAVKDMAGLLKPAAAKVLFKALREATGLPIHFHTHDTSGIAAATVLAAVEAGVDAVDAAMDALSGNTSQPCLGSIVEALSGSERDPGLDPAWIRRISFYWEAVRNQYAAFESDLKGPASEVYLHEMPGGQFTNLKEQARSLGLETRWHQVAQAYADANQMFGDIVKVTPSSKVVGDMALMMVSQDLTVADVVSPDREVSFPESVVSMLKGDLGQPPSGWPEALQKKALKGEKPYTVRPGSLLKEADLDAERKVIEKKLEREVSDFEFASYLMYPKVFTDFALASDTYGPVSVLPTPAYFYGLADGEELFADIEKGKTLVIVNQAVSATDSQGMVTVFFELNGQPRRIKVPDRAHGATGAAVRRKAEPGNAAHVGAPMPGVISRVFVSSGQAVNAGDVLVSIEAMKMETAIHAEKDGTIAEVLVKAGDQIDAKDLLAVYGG

[2] = target: Rhizobium etli pyruvate carboxylase (RePC) (Rhizobium etli, UniProt Q2K340, R472S)
[3] = target: T2, Rhizobium etli pyruvate carboxylase (RePC) (Rhizobium etli, UniProt Q2K340, R427S)
T2 sequence (Q2K340 1-1154 R427S): T1 sequence (Q2K340 1-1154 R472K) with R427S, K472R

Measured: Ki

N[C@@H](CC(=O)O)C(=O)O [L-aspartate]
7 ± 1 mM: all assays above
